Assay results from patent US10266544B2, “Aryl substituted aminomethyl spectinomycin analogs as antibacterial agents” (ST. JUDE CHILDREN'S RESEARCH HOSPITAL, INC., priority 2013, dated 2019).
In brackets after ≈: the same amount, converted by molar mass. Where a name gives a salt, the structure may show the parent alone. Read-outs that look alike come from different tables or passages of the source.

Experiments:
Format in all cases: cell-based
[1] = test system: Legionella pneumophila (ATCC 33153); assay: microbe, parasite or virus in culture; conditions: ATCC33153, 72 h, read-out: Zone of inhibition L.p.
[2] = test system: Bacillus anthracis, Sterne 34F2; assay: microbe, parasite or virus in culture; conditions: STERNE34F2, read-out: MIC B.a.
[3] = test system: live vaccine strain (LVS) of Francisella tularensis; assay: microbe, parasite or virus in culture; conditions: Francisella tularensis
[4] = test system: Streptococcus pneumoniae clinical isolates representing several serotypes; assay: MIC determination, Streptococcus pneumoniae panel of clinical isolates (Table 7); conditions: Streptococcus pneumoniae
[5] = test system: M. tuberculosis clinical isolates; assay: microbe, parasite or virus in culture; conditions: Mycobacterium tuberculosis
[6] = test system: Enterococcus faecalis (ATCC 33186); assay: MIC determination, microbroth dilution; conditions: ATCC33186; Enterococcus faecalis (ATCC 33186); read-out: MIC E.f.
[7] = test system: Bacillus subtilis (ATCC 23857); assay: MIC determination, microbroth dilution; conditions: ATCC23857; Bacillus subtilis (ATCC 23857); read-out: MIC B.s.
[8] = test system: MRSA, Staphylococcus aureus (NRS70); assay: MIC determination, microbroth dilution; conditions: Staphylococcus aureus (NRS70); read-out: MIC MRSA
[9] = test system: Klebsiella pneumoniae (ATCC 33495); assay: MIC determination, microbroth dilution; conditions: ATCC33495
[10] = test system: Proteus vulgaris (ATCC 33420); assay: MIC determination, microbroth dilution; conditions: ATCC33420
[11] = test system: Burkholderia cepacia (ATCC 25416); assay: MIC determination, microbroth dilution
[12] = test system: Neisseria gonorrhoeae (ATCC 49226); assay: Disc diffusion assay; conditions: ATCC49226, 4 μg per disc, read-out: Zone of inhibition N.g.
[13] = test system: Pseudomonas aeruginosa (PA01); assay: MIC determination, microbroth dilution
[14] = test system: Streptococcus pneumoniae (R6); assay: MIC determination, microbroth dilution
[15] = test system: Escherichia coli (ATCC 700926); assay: MIC determination, microbroth dilution; conditions: ATCC700926; Escherichia coli (ATCC 700926); read-out: MIC E.c.
[16] = test system: Proteus mirabilis (ATCC 25933); assay: MIC determination, microbroth dilution; conditions: ATCC25933
Yersinia pestis = assay: microbe, parasite or virus in culture; conditions: read-out: MIC Y.p.
Listeria monocytogenes = assay: MIC determination (Table 6)
Moraxella catarrhalis = assay: MIC determination (Table 6)
Bacillus anthracis = assay: microbe, parasite or virus in culture; conditions: read-out: MIC B.a.
[17] = test system: acinetobacter baumannii (ATCC 19606); assay: MIC determination, microbroth dilution; conditions: ATCC19606
[18] = test system: Stenotrophomonas maltophilia (ATCC 13637); assay: MIC determination, microbroth dilution; conditions: ATCC13637; Stenotrophomonas maltophilia (ATCC 13637); read-out: MIC S.m.
[19] = test system: Streptococcus pyogenes (ATCC 700294); assay: MIC determination, microbroth dilution; conditions: ATCC700294; Streptococcus pyogenes (ATCC 700294); read-out: MIC S. py.
E. coli K12 ΔtolC = assay: microbe, parasite or virus in culture; conditions: Escherichia coli, read-out: MIC E.c. Δtolc
[20] = test system: Haemophilus influenza (ATCC 49247); assay: microbe, parasite or virus in culture
[21] = test system: Neisseria gonorrhoeae (ATCC 49226); assay: Agar MIC determination (Alamar Blue); conditions: ATCC49226, agar MIC, read-out: MIC N.g.
[22] = test system: Neisseria meningitides (ATCC 13077); assay: Disc diffusion assay; conditions: ATCC13077, 4 μg per disc, read-out: Zone of inhibition N.m.
[23] = test system: Staphylococcus aureus (ATCC 29213); assay: MIC determination, microbroth dilution; conditions: ATCC29213; Staphylococcus aureus (ATCC 29213); read-out: MIC S.a.
[24] = S. pneumoniae Daw7, PenG Resistant, read-out: MIC Daw7
[25] = S. pneumoniae Daw8, PenG Resistant, read-out: MIC Daw8
[26] = S. pneumoniae Daw62, PenG Resistant, read-out: MIC Daw62
[27] = S. pneumoniae Daw64, PenG Resistant, read-out: MIC Daw64

CN[C@@H]1[C@H](O)[C@H](NC)[C@H]2O[C@@]3(O)C(=O)C[C@@H](C)O[C@H]3O[C@@H]2[C@H]1O [SPC, (2R,4aR,5aR,6S,7S,8R,9S,9aR,10aS)-4a,7,9-trihydroxy-2-methyl-6,8-bis(methylamino)decahydro-4H-benzo[b]pyrano[2,3-e][1,4]dioxin-4-one, reference compound]
zone of inhibition at 4 µg/disc [1]: 0 mm | MIC [2]: 25 µg/mL (≈ 75.2 µM) | MIC ([3]; read-out: MIC F.t.): 12.5 to 25 µg/mL (≈ 37.6 to 75.2 µM) | MIC ([4]; BAA1407, read-out: MIC BAA-1407): 12.5 µg/mL (≈ 37.6 µM) | MIC ([4]; read-out: MIC D39X): 12.5 µg/mL (≈ 37.6 µM) | MIC ([4]; read-out: MIC Daw9): 12.5 µg/mL (≈ 37.6 µM) | MIC ([4]; read-out: MIC OVA6): 12.5 µg/mL (≈ 37.6 µM) | MIC ([4]; read-out: MIC T4X): 12.5 µg/mL (≈ 37.6 µM) | MIC ([4]; S. pneumoniae A66.1x, Drug Susceptible, read-out: MIC A66.1x): 6.3 µg/mL (≈ 19 µM) | MIC ([4]; S. pneumoniae BHN97x, Drug Susceptible, read-out: MIC BHN97x): 6.3 µg/mL (≈ 19 µM) | MIC [4, 24]: 25 µg/mL (≈ 75.2 µM) | MIC [4, 25]: 25 µg/mL (≈ 75.2 µM) | MIC [4, 26]: 25 µg/mL (≈ 75.2 µM) | MIC [4, 27]: 25 µg/mL (≈ 75.2 µM) | MIC ([5]; H37RV, read-out: MIC H37Rv): 100 µg/mL (≈ 301 µM) | MIC ([5]; read-out: MIC TN022): 200 µg/mL (≈ 602 µM) | MIC ([5]; read-out: MIC TN026): 200 µg/mL (≈ 602 µM) | MIC [6]: 50 to 100 µg/mL (≈ 150 to 301 µM) | MIC [7]: 25 µg/mL (≈ 75.2 µM) | MIC [8]: > 200 µg/mL | MIC [9]: > 200 µg/mL | MIC [10]: 50 µg/mL (≈ 150 µM) | MIC ([11]; ATCC25416, Burkholderia cepacia (ATCC 25416), read-out: MIC B.c.): 50 to 100 µg/mL (≈ 150 to 301 µM) | MIC B.c. ([11]; Burkholderia cepacia, Table 6): 50 to 100 µg/mL | zone of inhibition at 4 µg/disc [12]: 11 to 13 mm | MIC [13]: 50 to 100 µg/mL (≈ 150 to 301 µM) | MIC ([14]; Streptococcus pneumoniae, read-out: MIC R6): 12.5 µg/mL (≈ 37.6 µM) | MIC ([14]; Streptococcus pneumoniae, read-out: MIC S. pn.): 12.5 µg/mL (≈ 37.6 µM) | MIC [15]: 25 to 50 µg/mL (≈ 75.2 to 150 µM) | MIC [16]: > 200 µg/mL | MIC (Yersinia pestis): 12.5 µg/mL (≈ 37.6 µM) | MIC (Listeria monocytogenes): 25 to 50 µg/mL (≈ 75.2 to 150 µM) | MIC (Moraxella catarrhalis): 3.1 to 6.3 µg/mL (≈ 9.33 to 19 µM) | MIC (Bacillus anthracis): 25 µg/mL (≈ 75.2 µM) | MIC [17]: > 200 µg/mL | MIC [18]: 50 to 200 µg/mL (≈ 150 to 602 µM) | MIC [19]: 25 µg/mL (≈ 75.2 µM) | MIC (E. coli K12 ΔtolC): 3.1 to 12.5 µg/mL (≈ 9.33 to 37.6 µM) | zone of inhibition at 4 µg/disc ([20]; Haemophilus, ATCC49247, read-out: Zone of inhibition H.i.): 11 to 13 mm | MIC [21]: 50 µg/mL (≈ 150 µM) | zone of inhibition at 4 µg/disc [22]: 13 to 14 mm

CN[C@@H]1[C@H](O)[C@H](NC)[C@H]2O[C@]3(O)[C@H](O[C@@H]2[C@H]1O)O[C@H](C)C[C@@]3(O)CNCc1ccccc1OC(F)(F)F [compound 10, Trihydrochloride]
MIC [2]: 200 µg/mL | MIC [3]: 25 µg/mL | MIC ([3]; read-out: MIC F.t.): 25 µg/mL | MIC ([4]; BAA1407, S. pneumoniae BAA-1407, Macrolide Resistant, read-out: MIC BAA-1407): 25 µg/mL | MIC [4, 24]: 12.5 µg/mL | MIC [4, 25]: 12.5 µg/mL | MIC ([4]; S. pneumoniae Daw9, PenG Resistant, read-out: MIC Daw9): 12.5 µg/mL | MIC [4, 26]: 12.5 µg/mL | MIC [4, 27]: 25 µg/mL | MIC ([4]; S. pneumoniae OVA6, Macrolide Resistant, read-out: MIC OVA6): 6.3 µg/mL | MIC ([4]; S. pneumoniae T4X, Drug Susceptible, read-out: MIC T4X): 3.1 µg/mL | MIC ([5]; H37RV, read-out: MIC H37Rv): 200 µg/mL | MIC [6]: 200 µg/mL | MIC [7]: 50 µg/mL | MIC [8]: 200 µg/mL | MIC [9]: 100 to 200 µg/mL | MIC [10]: > 200 µg/mL | MIC ([11]; Burkholderia cepacia, ATCC25416, read-out: MIC B.c., Burkholderia cepacia (ATCC 25416)): > 200 µg/mL | MIC ([11]; Burkholderia cepacia, ATCC25416, read-out: MIC B.c., Burkholderia cepacia, Table 6): > 200 µg/mL | zone of inhibition at 4 µg/disc [12]: 8 mm | MIC [13]: 200 µg/mL | MIC ([14]; Streptococcus pneumoniae (R6), read-out: MIC S. pn.): 25 µg/mL | MIC ([14]; Streptococcus pneumoniae, S. pneumoniae R6, Drug Susceptible, read-out: MIC R6): 12.5 µg/mL | MIC [15]: 200 µg/mL | MIC [16]: > 200 µg/mL | MIC (Yersinia pestis): 200 µg/mL | MIC [23]: 200 µg/mL | MIC (Listeria monocytogenes): 100 µg/mL | MIC (Moraxella catarrhalis): 50 to 100 µg/mL | MIC (Bacillus anthracis): 200 µg/mL | MIC [17]: 100 to 200 µg/mL | MIC [18]: 50 µg/mL | MIC [19]: 25 to 50 µg/mL | MIC (E. coli K12 ΔtolC): 25 to 50 µg/mL | zone of inhibition at 4 µg/disc ([20]; ATCC49247, Haemophilus influenza, 4 μg per disc, range of at least two experiments, read-out: Zone of inhibition H.i.): 0 mm | MIC [21]: 200 µg/mL | zone of inhibition at 4 µg/disc [22]: 0 mm
